Results: US10918741B2, “PSMA-targeting imaging agents” (THE CLEVELAND CLINIC FOUNDATION, priority 2014, dated 2021)
Entries after “also recorded” stand apart in the source; their conditions may differ. Like-named read-outs stand apart in the source and are kept apart here. *1 amine or outer side, *2 acyl side, *3 side chain or, on linkers, in order; H or OH if unused. Where a SMILES comes first, the peptide text is derived from it. [ ]: non-standard residue; d: D form. γGlu = O=C(O)[C@H](CCC(=O)[*:2])N[*:1]; X1 = O=C(C1CCC(CN[*:1])CC1)[*:2]; CO = O=C([*:1])[*:2]; Ahx = NCCCCCC(=O)O

Experiments:
PSMA [1] = target: T1, PSMA (Homo sapiens, UniProt Q04609); experiment: Competitive binding assay; parameters: endogenous in cells; host or cells: LNCaP (endogenous PSMA, from ATCC) or PC3-PIP (retrovirally transformed PSMA-positive PC3, from Dr. Michel Sadelain)
Protocol: The prostate cancer cell line LNCaP (PSMA-positive) was obtained from American Type Culture Collection (Manassas, Va.). Retrovirally transformed PSMA positive PC3-PIP cells and transfection controlled PC3-flu cells were obtained from Dr. […] (Laboratory of Gene Transfer and Gene Expression, Gene Transfer and Somatic Cell Engineering Facility, Memorial-Sloan Kettering Cancer Center, New York, N.Y.). Cells were grown at 37° C. and 5% CO2 under a humidified atmosphere. […] The mixture was centrifuged at 3,000 g for 5 min at 4° C., then washed three times with 500 μL of cold PBS. […] The concentration required to inhibit 50% of binding was determined (IC50) by Graph Pad Prism 3.0.

PSMA [2] = target: T1, PSMA; conditions: cited from earlier work; for lesion detection in humans, in words / non-PSMA related background in humans, in words: early human trials; for (per patient) lesion detection rate: 37 patients with prostate cancer
[3] = published values, cited from earlier work; for Blood pool activity: 2 hours post injection; for liver background: at 2 hours
[4] = test system: PC3-pip (PSMA-positive) and PC3-flu (PSMA-negative) tumors; experiment: NIR fluorescence-guided robotic surgery (da Vinci Si); format: in vivo, mice
Source text: Mouse carcasses were operated on using a da Vinci Si Robot (Intuitive Surgical, Sunnyvale, Calif.). A portable dark box was used to minimize ambient light and to allow optimal fluorescence detection. Three robotic instruments (the novel endoscope to detect NIR fluorescence, a scissor, and a grasper) were inserted through robotic trocars positioned across the top cover of the dark box. The tumors were excised using the new robotic camera to detect the fluorescence of the PSMA-binding conjugate. All procedures were done by a single surgeon (R.S.), who had extensive experience in robotic surgery. Tumor specimens were sent for histopathological analysis to assess margin status.

[5] = test system: PC3-pip (PSMA-positive) and PC3-flu (PSMA-negative) tumors; experiment: Preoperative NIR imaging with the Maestro in vivo imaging system; parameters: species or system mice
Protocol: PC3-pip (PSMA-positive) and PC3-flu (PSMA-negative) cells were injected subcutaneously 1.0×10^6 PC3 cells with 200 µL of matrigel into each flank of 6 NOD SCID Gamma (NSG) mice. Chang et al., Cancer Res.; 59:3192-3198 (1999). After the tumors reached a size of ˜5 mm, the mice were anesthetized with isoflurane and were administered 2 or 10 nmol of PSMA-binding fluorescent conjugate via tail vein injection. Preoperative NIR imaging was performed using the Maestro in vivo imaging system (Cambridge Research and Instrumentation, Hopkinton, Mass.). The mice were imaged immediately and at 1-hour intervals after injection of the PSMA targeting fluorescent compound for up to 4 hours. The mice were killed once PSMA+ and PSMA− tumors could be visually differentiated by NIR imaging. The method used was CO2 asphyxiation followed by cervical dislocation.

[6] = Biodistribution study of [Al^18F]5; format: in vivo, mice; conditions: male, NSG, mouse, total radioactivity
Protocol: (§1) Positron emission tomography and biodistribution study of [Al^18F]5: Male NSG mice at least 6 weeks old were subcutaneously implanted with two human PC3-PIP (PSMA+) tumor xenographs. When one of the tumors reached 0.5 mL in volume, imaging and biodistribution studies were conducted. For imaging, 0.3-0.4 mCi of [Al^18F]5 was injected via the tail vein. The mouse was anesthetized with isoflurane and imaged at 1 hour post injection on a clinical PET/CT scanner (Biograph mCT, Siemens Molecular Imaging, Hoffman Estates, Ill.) using super-resolution sampling and iterative deconvolution processing. For the biodistribution study without imaging, 50-150 μCi of [Al^18F]5 was injected in PC3-PIP tumor bearing mice which were sacrificed at one and two hours post injection for biodistribution measurements.

[7] = test system: PC3-PIP (PSMA+) tumor xenographs; experiment: Biodistribution study of [Al^18F]5; format: in vivo, mice; conditions: for Biodistribution: Tumor (PC3PIP): preliminary
Protocol: as §1

[8] = blood, read-out: Biodistribution: Blood
[9] = liver, read-out: Biodistribution: Liver

T1 sequence (Q04609 whole entry): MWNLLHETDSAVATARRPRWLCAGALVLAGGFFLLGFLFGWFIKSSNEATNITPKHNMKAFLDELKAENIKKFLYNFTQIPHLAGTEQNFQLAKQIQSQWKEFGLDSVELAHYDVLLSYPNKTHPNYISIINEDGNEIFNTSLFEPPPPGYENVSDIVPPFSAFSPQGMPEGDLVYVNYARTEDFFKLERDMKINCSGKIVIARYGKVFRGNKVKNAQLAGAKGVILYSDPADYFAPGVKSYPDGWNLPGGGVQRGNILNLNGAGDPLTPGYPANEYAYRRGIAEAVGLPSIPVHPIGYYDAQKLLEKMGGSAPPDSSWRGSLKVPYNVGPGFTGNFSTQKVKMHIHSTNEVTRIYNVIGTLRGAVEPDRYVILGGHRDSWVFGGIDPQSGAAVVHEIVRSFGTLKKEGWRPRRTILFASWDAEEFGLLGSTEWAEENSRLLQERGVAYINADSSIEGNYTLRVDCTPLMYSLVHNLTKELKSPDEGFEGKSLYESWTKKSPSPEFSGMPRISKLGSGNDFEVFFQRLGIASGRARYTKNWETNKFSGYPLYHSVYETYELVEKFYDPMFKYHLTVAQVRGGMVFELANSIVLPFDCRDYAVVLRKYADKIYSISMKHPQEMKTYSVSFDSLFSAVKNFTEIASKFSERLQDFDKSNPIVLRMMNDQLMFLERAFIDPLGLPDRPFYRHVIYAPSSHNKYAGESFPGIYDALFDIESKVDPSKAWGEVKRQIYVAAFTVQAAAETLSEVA

## O=C(O)CC[C@H](NC(=O)N[C@@H](CSC1CC(=O)N(CC2CCC(C(=O)NCCCCCC(=O)N[C@H](CCC(=O)O)C(=O)N[C@H](CCC(=O)O)C(=O)N[C@H](CCC(=O)O)C(=O)NCC(=O)O)CC2)C1=O)C(=O)O)C(=O)O (stereo partly shown) [Compound 1, ZJ-MCC-Ahx-dEdEdEG]
PSMA [1]
  affinity for PSMA, comparison in words: affinity comparable to the parent urea ligand; also recorded: Neither compound came close to matching the affinity of RBI-1033
PSMA [1]; LNCaP or PC3-PIP cells, 12 nM [^3H] ligand, 1 hour at 37° C., 95% confidence intervals in parentheses
  IC50: 2.2 nM

## O=C(O)CC[C@H](NC(=O)N[C@@H](CCCCNC(=O)Nc1ccc([123I])cc1)C(=O)O)C(=O)O [^123I-MIP-1095]
PSMA [2]
  lesion detection in humans, in words: detection of soft tissue and bone metastases, as well as tumors in the prostate bed
  non-PSMA related background in humans, in words: significant uptake in salivary glands, lacrimal glands, and liver

## O=C(O)CC[C@H](NC(=O)N[C@@H](CCCCNCc1ccc([123I])cc1)C(=O)O)C(=O)O [^123I-MIP-1072]
[3]
  Blood pool activity: 0.21 % ID/g
  liver background: 2.17 % ID/g
PSMA [2]
  lesion detection in humans, in words: detection of soft tissue and bone metastases, as well as tumors in the prostate bed
  non-PSMA related background in humans, in words: significant uptake in salivary glands, lacrimal glands, and liver

## O=C(O)CC[C@H](NC(=O)N[C@@H](CSCc1ccc([18F])cc1)C(=O)O)C(=O)O [^18F-DCFBC]
[3]
  Blood pool activity: 0.4 % ID/g
  liver background: 2.1 % ID/g
PSMA [2]
  lesion detection in humans, in words: detected lymph node and bone metastases at 2 hr post injection
  non-PSMA related background in humans, in words: elevated liver background and unexpected blood pool retention

## O=C(O)CC[C@H](NC(=O)N[C@@H](CCCCNC(=O)c1ccc([18F])nc1)C(=O)O)C(=O)O [^18F-DCFPyL]
[3]
  Blood pool activity: 0.4 % ID/g
  liver background: 2.1 % ID/g

## NC(=O)[C@H](CCCCNC(=S)Nc1ccc(CC2CN(CC(=O)O)CCN(CC(=O)O)CCN2CC(=O)O)cc1)NC(=O)[C@H](Cc1ccc(O)cc1)NC(=O)[C@H](CCC(=O)O)NC(=O)[C@H](CCC(=O)O)NC(=O)[C@H](CCC(=O)O)NC(=O)CCCCCNC(=O)CC[C@H](NC(=O)N[C@@H](CCC(=O)O)C(=O)O)C(=O)O (single isomer, unassigned) [Compound 5, E′E-Ahx-EEEYK(Bn-NOTA)-NH2]
PSMA [1]
  affinity for PSMA, comparison in words: same affinity for PSMA as compound 4

## NC(=O)[C@H](CS)NC(=O)CNC(=O)CNC(=O)CNC(=O)[C@H](Cc1ccc(O)cc1)NC(=O)CNC(=O)[C@@H](CCC(=O)O)NC(=O)[C@@H](CCC(=O)O)NC(=O)[C@@H](CCC(=O)O)NC(=O)CCCCCNC(=O)C1CCC(CNC(=O)CC[C@H](NC(=O)N[C@@H](CCC(=O)O)C(=O)O)C(=O)O)CC1 (stereo partly drawn) [Compound 3, E′E-Amc-Ahx-dEdEdEGYGGGC-NH2] ({Glu-CO-γGlu}-[X1][Ahx][dE][dE][dE]GYGGGC-NH2)
PSMA [1]
  affinity for PSMA, comparison in words: equivalent to compound 1

## O=C(O)CC[C@H](NC(=O)N[C@@H](CSC1CC(=O)N(CC2CCC(C(=O)NCCCCCC(=O)N[C@@H](Cc3ccc(O)cc3)C(=O)N[C@@H](Cc3ccc(O)cc3)C(=O)N[C@@H](Cc3ccc(O)cc3)C(=O)NCC(=O)O)CC2)C1=O)C(=O)O)C(=O)O (stereo partly shown) [Compound 2, ZJ-MCC-Ahx-YYYG]
PSMA [1]
  affinity for PSMA, comparison in words: affinity comparable to the parent urea ligand; also recorded: Neither compound came close to matching the affinity of RBI-1033

## ZJ-MCC-dEdEdEGK(IRDye800cw)G
[4]; 10 nmol, 120 minutes after injection
  mice with fluorescence detected from the PSMA positive tumors during robotic surgery: 2 of 3
[4]; PSMA positive tumors
  intensity of fluorescence during robotic surgery: weak
[4]; mouse, in vivo
  fluorescence in the PSMA negative (control) tumors: no tumor fluorescence was identified in any of the mice
[5]; 10 nmol
  mice with proper targeting on presurgical NIR imaging: Two of the 3 mice
[5]; Maestro in vivo imaging system
  preoperative NIR fluorescence imaging result in words: strong fluorescence signal from the tracer in the right flank (PSMA positive tumor), bladder, and urethra
[5]; first 3 mice, Maestro imaging system
  time to detect peak fluorescence from the PSMA-positive tumors: 120 min
[5]; within 240 minutes
  signal intensity from the tumor: already partially decreased

## O=C([O-])CN(CCN(CC(=O)[O-])Cc1cc(CCC(=O)NCCCCCC(=O)NCCCC[C@H](NC(=O)N[C@@H](CCC(=O)O)C(=O)O)C(=O)O)ccc1[O-])Cc1cc(CCC(=O)O)ccc1[O-].[68Ga+3].[OH3+] [Glu-NH—CO—NHLys(Ahx)-[^68Ga(HBED-CC)]]
PSMA [2]; at PSA <2.2 ng/ml
  (per patient) lesion detection rate: 60%
PSMA [2]; at PSA >2.2 ng/ml
  (per patient) lesion detection rate: 100%
PSMA [2]
  non-PSMA related background in humans, in words: significant uptake in salivary glands, lacrimal glands, and liver

## NC(=O)[C@H](CCCCNC(=S)Nc1ccc(CC2CN(CC(=O)O)CCN(CC(=O)O)CCN2CC(=O)O)cc1)NC(=O)[C@H](Cc1ccc(O)cc1)NC(=O)[C@H](CCC(=O)O)NC(=O)[C@H](CCC(=O)O)NC(=O)[C@H](CCC(=O)O)NC(=O)CCCCCNC(=O)CC[C@H](NC(=O)N[C@@H](CCC(=O)O)C(=O)O)C(=O)O (single isomer, unassigned) [[Al^18F]5]
[6]; [8]
  tissue uptake at 1 h: ~0.18 %ID/g
  tissue uptake at 2 h: 0.04 %ID/g
[6]; bone, read-out: Biodistribution: Bone
  tissue uptake at 2 h: 0.1 %ID/g
[6]; [9]
  tissue uptake at 1 h: ~0.4 %ID/g
  tissue uptake at 2 h: 0.17 %ID/g
[6]; muscle, read-out: Biodistribution: Muscle
  tissue uptake at 2 h: 0.01 %ID/g
[6]; tumor (PC3-PIP), n = 6, preliminary, read-out: Biodistribution: Tumor (PC3PIP)
  tissue uptake at 2 h: 4.6 %ID/g
[7]; 1 hour
  Biodistribution: Blood: 0.18% ± 0.09%
  Biodistribution: Bone: 0.39% ± 0.28%
  Biodistribution: Heart: 0.14% ± 0.11%
  Biodistribution: Kidney: 16.82% ± 5.60%
  Biodistribution: Liver: 0.41% ± 0.10%
  Biodistribution: Lung: 0.21% ± 0.05%
  Biodistribution: Muscle: 0.19% ± 0.12%
  Biodistribution: Small Intestine: 0.43% ± 0.51%
  Biodistribution: Spleen: 0.29% ± 0.14%
  Biodistribution: Stomach: 0.10% ± 0.03%
  Biodistribution: Thyroid: 0.11% ± 0.02%
[7]; 1 hour, n = 4
  Biodistribution: Tumor (PC3PIP): 6.91% ± 1.44%
[7]; 2 hour
  Biodistribution: Heart: 0.04% ± 0.01%
  Biodistribution: Kidney: 5.96% ± 2.17%
  Biodistribution: Lung: 0.07% ± 0.04%
  Biodistribution: Small Intestine: 0.18% ± 0.02%
  Biodistribution: Spleen: 0.10% ± 0.04%
  Biodistribution: Stomach: 0.03% ± 0.02%
  Biodistribution: Thyroid: 0.05% ± 0.00%
  Tumor:blood: 115
  Tumor:bone: 46
  Tumor:liver: 27
  Tumor:muscle: 458
  Tumor:spleen: 46
[7]; 2 hour, n = 6
  Biodistribution: Tumor (PC3PIP): 4.58% ± 0.55%
[7]; mouse, in vivo
  dissociation of ^18F-fluoride from the complex (from bone uptake): no significant dissociation of ^18F-fluoride from the complex
  excretion in words: very fast renal excretion
